In brackets after ≈: the same amount, converted by molar mass.
Tests used:
[1] = tested on: human mammary adenocarcinoma MCF-7 cell; test: Inhibition of human mammary adenocarcinoma MCF-7 cell growth in vitro (MTT assay); format: cell-based; conditions: MCF7, 168 h, MCF-7 cells, seven days at 37° C.
Procedure: Inhibition of human mammary adenocarcinoma MCF-7 cell growth in vitro by some compounds of the amino acid derivatives (I)
The cytotoxicity test was performed in microtiter plates, with each well containing 3×10^3 MCF-7 cells in 100 μl Eagle's minimum essential medium supplemented with 10% fetal calf serum, sodium pyruvate, nonessential amino acids, penicillin (50 units/ml) and streptomycin (50 μg/ml). The cells were incubated at 37° C. for seven days in humidified atomosphere of 5% carbon dioxide and 95% of air and the colorimetric MTT assay was performed as described in Test 1.
The test compound was dissolved and diluted in Eagle's minimum essential medium and added to the culture to give final concentration of 30 μg/ml or less.

[2] = Acute toxicity in BDF1 mice by intravenous injection; conditions: mouse, in vivo
Procedure: Acute toxicity of FR-900840 substance in BDF1 mice by intravenous injection is 180 mg/kg.

[3] = Solubility of FR-900840 substance; format: physicochemical
[4] = tested on: human lung adenocarcinoma A549 cell; test: Inhibition of human lung adenocarcinoma A549 cell growth in vitro (MTT assay); format: cell-based; conditions: 168 h, A549 cells, seven days at 37° C.
Procedure: Inhibition of human lung adenocarcinoma A549 cell growth in vitro by some compounds of the amino acid derivatives (I)
The cytotoxicity test was performed in microtiter plates, with each well containing 3×10^3 A549 cells in 100 μl Dulbecco's minimum essential medium supplemented with 10% fetal calf serum, penicillin (50 units/ml) and streptomycin (50 μg/ml). The cells were incubated at 37° C. for seven days and the colorimetric MTT (tetrazolium) assay was performed according to the method described by Mosmann (J. Immunol. Methods, 65, 55-63, 1983). MTT [3-(4,5-dimethylthiazol-2-yl)-2,5-diphenyl tetrazolium bromide, made by Sigma] was dissolved in PBS at 5 mg/ml and filtered to sterilize and remove a small amount of insoluble residue. After the culture of A549 cells was terminated, this MTT solution (10 μl per 100μl medium) was added to plates were further incubated at 37° C. for 4 hours. Acid-isopropanol (100 μl of 0.04N HCl in isopropanol) was added to all wells and mixed thoroughly to dissolve the dark blue crystals. After all crystals were dissolved, the plates were read on a 2-wavelength microplate photometer (Model MTP-22; Corona Electric Co., Ltd., Katsuta, Japan) at 550 nm, a reference wavelength of 660 nm. The object compound of this invention was dissolved and diluted in Dulbecco's minimum essential medium and added to the culture to give final concentration of 30μg/ml or less.

| Compound | IC50 [1] [ng/mL] | IC50 [4] [ng/mL] | also measured |
| --- | --- | --- | --- |
| C[C@@H](O)C(=[N+]=[N-])C(=O)OC[C@H](N)C(=O)O [Example 1, O-[2-diazo-3(R)-hydroxy-1-oxobutyl]-L-serine] | 0.0018 (≈ 0.00829 nM) | 0.012 (≈ 0.0553 nM) | LD50 [2]: 180 mg/kg; Solubility ([3]; acetone): insoluble; Solubility ([3]; benzene): insoluble; Solubility ([3]; chloroform): insoluble; Solubility ([3]; diethyl ether): insoluble; Solubility ([3]; ethanol): sparingly soluble; Solubility ([3]; ethyl acetate): insoluble; Solubility ([3]; methanol): sparingly soluble; Solubility ([3]; water): soluble |
| C[C@@H](O)C(=[N+]=[N-])C(=O)OC[C@H](NC(=O)C(F)(F)F)C(=O)O [Example 2, O-[2-Diazo-3(R)-hydroxy-1-oxobutyl]-N-trifluoroacetyl-L-serine] | 0.0068 (≈ 0.0217 nM) | 0.0105 (≈ 0.0335 nM) |  |
| C[C@H](O)C(=[N+]=[N-])C(=O)OC[C@H](N)C(=O)O [Example 4, O-[2-Diazo-3(S)-hydroxy-1-oxobutyl]-L-serine] | 0.00082 (≈ 0.00378 nM) | 0.018 (≈ 0.0829 nM) |  |

The next lines start with results.

| IC50 [1] [ng/mL] | IC50 [4] [ng/mL] | Compound | also measured |
| --- | --- | --- | --- |
| 0.076 (≈ 0.272 nM) | 0.14 (≈ 0.501 nM) | [N-]=[N+]=C(C(=O)OC[C@H](N)C(=O)O)C(O)c1ccccc1 (stereo partly shown) [Example 5] |  |
| 0.0017 (≈ 0.00837 nM) | 0.0018 (≈ 0.00886 nM) | [N-]=[N+]=C(CO)C(=O)OC[C@H](N)C(=O)O [Example 6, O-(2-Diazo-3-hydroxy-1-oxopropyl)-L-serine] |  |

— patent US4939241A, “Amino acid derivatives of antitumor activity” (Fujisawa Pharmaceutical Co., Ltd., priority 1987, dated 1990)
